The assay deals with T1, recombinant human NAE enzyme (Homo sapiens, UniProt Q8TBC4).
T1 construct: His (N); made in house; host or cells: Sf9 insect cells (baculovirus, Bac-to-Bac), purified on Ni-NTA
T1 sequence (Q8TBC4 1-463): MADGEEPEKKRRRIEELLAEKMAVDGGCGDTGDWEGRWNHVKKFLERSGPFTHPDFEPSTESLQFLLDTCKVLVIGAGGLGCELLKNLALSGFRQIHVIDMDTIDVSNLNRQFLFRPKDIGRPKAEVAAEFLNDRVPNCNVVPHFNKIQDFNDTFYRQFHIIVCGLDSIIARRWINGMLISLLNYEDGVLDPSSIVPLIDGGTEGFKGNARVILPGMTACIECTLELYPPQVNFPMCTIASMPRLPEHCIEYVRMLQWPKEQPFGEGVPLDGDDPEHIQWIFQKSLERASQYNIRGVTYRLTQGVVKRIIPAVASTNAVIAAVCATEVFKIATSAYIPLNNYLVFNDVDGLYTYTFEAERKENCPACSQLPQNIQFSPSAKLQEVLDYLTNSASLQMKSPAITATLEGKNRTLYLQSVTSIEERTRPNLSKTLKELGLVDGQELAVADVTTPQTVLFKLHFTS
T1 sequence (Q13564 1-534 partner): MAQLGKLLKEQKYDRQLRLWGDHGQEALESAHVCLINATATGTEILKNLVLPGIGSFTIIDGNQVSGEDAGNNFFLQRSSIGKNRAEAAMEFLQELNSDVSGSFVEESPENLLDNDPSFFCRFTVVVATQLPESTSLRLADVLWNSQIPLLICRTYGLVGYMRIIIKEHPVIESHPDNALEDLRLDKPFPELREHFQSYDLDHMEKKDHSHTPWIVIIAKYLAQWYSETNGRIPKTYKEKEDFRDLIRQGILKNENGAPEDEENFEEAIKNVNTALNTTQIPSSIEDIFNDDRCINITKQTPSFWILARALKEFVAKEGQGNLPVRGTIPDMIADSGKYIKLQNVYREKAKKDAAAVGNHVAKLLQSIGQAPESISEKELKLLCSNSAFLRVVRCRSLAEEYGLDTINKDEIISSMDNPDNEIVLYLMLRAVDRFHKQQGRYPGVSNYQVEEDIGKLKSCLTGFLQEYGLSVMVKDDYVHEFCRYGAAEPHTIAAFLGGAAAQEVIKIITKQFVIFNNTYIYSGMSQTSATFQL
In words: Nedd8-Activating Enzyme (NAE) HTRF Assay. Format: biochemical. Conditions: threshold statement: less than or equal to 100 nM; 20 μM ATP, 90 minutes at 24° C. The procedure: Following manufacturer instructions, baculoviruses were generated with the Bac-to-Bac Expression System (Invitrogen) for the following proteins: untagged NAEα (APPBP1; NP_003896.1), N-terminally His-tagged NAEβ (UBE1C; NP_003959.3), untagged SAEα (SAE1; NP_005491.1), N-terminally His-tagged SAEβ (UBA2; NP_005490.1), N-terminally His-tagged murine UAE (UBE1X; NP_033483). NAEα/His-NAEβ and SAEα/His-SAEβ complexes were generated by co-infection of Sf9 cells, which were harvested after 48 hours. His-mUAE was generated by single infection of Sf9 cells and harvested after 72 hours. Expressed proteins were purified by affinity chromatography (Ni—NTA agarose, Qiagen) using standard buffers. Ubc12 (UBE2M; NP_003960.1), Ubc9 (UBE2I; NP_003336.1), Ubc2 (UBE2A; NP_003327.2) were subcloned into pGEX (Pharmacia) and expressed as N-terminally GST tagged fusion proteins in E. coli. Expressed proteins were purified by conventional affinity chromatography using standard buffers. Nedd8 (NP_006147), Sumo-1 (NP_003343) and Ubiquitin (with optimized codons) were subcloned into pFLAG-2 (Sigma) and expressed as N-terminally Flag tagged fusion proteins in E. coli. Expressed proteins were purified by conventional chromatography using standard buffers. Nedd8-Activating Enzyme (NAE) HTRF Assay. The NAE enzymatic reaction totaled 50 μL and contained 50 mM HEPES (pH 7.5), 0.05% BSA, 5 mM MgCl2, 20 μM ATP, 250 μM GSH, 0.01 μM Ubc12-GST, 0.075 μM Nedd8-Flag and 0.28 nM recombinant human NAE enzyme. The enzymatic reaction mixture, with and without compound inhibitor, was incubated at 24° C. for 90 minutes in a 384-well plate before termination with 25 μL of Stop/Detection buffer (0.1M HEPES pH 7.5, 0.05% Tween20, 20 mM EDTA, 410 mM KF, 0.53 nM Europium-Cryptate labeled monoclonal anti-FLAG M2 antibody (CisBio International) and 8.125 μg/mL PHYCOLINK goat anti-GST allophycocyanin (XL-APC) antibody (Prozyme)). After incubation for 3 hours at 24° C., quantification of the FRET was performed on the Analyst™ HT 96.384 (Molecular Devices).
(In TR-FRET formats the signal depends on donor and acceptor labels being close together.)

Usually IC50 stands for the point on the concentration scale where inhibition reaches its midpoint.

On to `CC1(C)C[C@H](Nc2ncnc3c2ccn3[C@@H]2C[C@@H](COS(N)(=O)=O)[C@@H](O)C2)c2ccc(Cl)cc21` [Compound I-67, [(1S,2S,4R)-4-(4-{[(1S)-5-chloro-3,3-dimethyl-2,3-dihydro-1H-inden-1-yl]amino)-7H-pyrrolo[2,3-d]pyrimidin-7-yl)-2-hydroxycyclopentyl]methyl sulfamate], for which the IC50 is not above 100 nM. For `NS(=O)(=O)/C=C/[C@@H]1C[C@@H](n2ccc3c(N[C@H]4CCc5ccccc54)ncnc32)C[C@@H]1O` [Compound I-73, (E)-2-((1S,2S,4R)-4-{4-[(1S)-2,3-dihydro-1H-inden-1-ylamino]-7H-pyrrolo[2,3-d]pyrimidin-7-yl}-2-hydroxycyclopentyl)ethylenesulfonamide] the value was not above 100 nM. With `CN(c1ncnc2c1ccn2[C@@H]1C[C@@H](COS(N)(=O)=O)[C@@H](O)C1)[C@H]1CCc2ccccc21` [Compound I-6, ((1S,2S,4R)-4-{4-[(1S)-2,3-dihydro-1H-inden-1-yl(methyl)amino]-7H-pyrrolo-[2,3-d]pyrimidin-7-yl}-2-hydroxycyclopentyl)methyl sulfamate], the IC50 is not above 100 nM. For `NS(=O)(=O)OCC[C@@H]1C[C@@H](n2ccc3c(N[C@H]4CCc5ccccc54)ncnc32)C[C@@H]1O` [Compound I-76, 2-((1S,2S,4R)-4-{4-[(1S)-2,3-dihydro-1H-inden-1-ylamino]-7H-pyrrolo[2,3-d]pyrimidin-7-yl}-2-hydroxycyclopentyl)ethyl sulfamate] the value was not above 100 nM. The value for `CC[C@@H]1Cc2ccccc2[C@@H]1Nc1ncnc2c1ccn2[C@@H]1C[C@@H](COS(N)(=O)=O)[C@@H](O)C1` [Compound I-83, [(1S,2S,4R)-4-(4-{[(1R,2R)-2-ethyl-2,3-dihydro-1H-inden-1-yl]amino}-7H-pyrrolo[2,3-d]pyrimidin-7-yl)-2-hydroxycyclopentyl]methyl sulfamate] was not above 100 nM; that for `CO[C@H]1Cc2ccccc2[C@H]1Nc1ncnc2c1ccn2[C@@H]1C[C@@H](CNS(N)(=O)=O)[C@@H](O)C1` [Compound I-74, N-{[(1S,2S,4R)-2-hydroxy-4-(4-{[(1R,2S)-2-methoxy-2,3-dihydro-1H-inden-1-yl]amino}-7H-pyrrolo[2,3-d]pyrimidin-7-yl)cyclopentyl]methyl}sulfamide] was not above 100 nM; that for `NS(=O)(=O)OC[C@@H]1C[C@@H](n2ccc3c(N[C@H]4CCc5cc(Cl)ccc54)ncnc32)C[C@@H]1O` [Compound I-27, [(1S,2S,4R)-4-(4-}[(1S)-5-chloro-2,3-dihydro-1H-inden-1-yl]amino}-7H-pyrrolo-[2,3-d]pyrimidin-7-yl)-2-hydroxycyclopentyl]methyl sulfamate] was not above 100 nM. On to `CO[C@@H]1Cc2ccccc2[C@H]1Nc1ncnc2c1ccn2[C@@H]1C[C@@H](COS(N)(=O)=O)[C@@H](O)C1` [Compound I-72, [(1S,2S,4R)-2-hydroxy-4-(4-{[(1R,2R)-2-methoxy-2,3-dihydro-1H-inden-1-yl]amino}-7H-pyrrolo[2,3-d]pyrimidin-7-yl)cyclopentyl]methyl sulfamate], for which the half-inhibitory concentration (IC50) was not above 100 nM.

For the molecule `NS(=O)(=O)OC[C@@H]1C[C@@H](n2ccc3c(NCc4ccccc4Cl)ncnc32)C[C@@H]1O` [Compound I-1, ((1S,2S,4R)-4-{4-[(2-chlorobenzyl)amino]-7H-pyrrolo[2,3-d]pyrimidin-7-yl}-2-hydroxycyclopentyl)methyl sulfamate], the IC50 was not above 100 nM.

For `NS(=O)(=O)OC[C@@H]1C[C@@H](n2ccc3c(NCc4ccc(Cl)c(Cl)c4)ncnc32)C[C@@H]1O` [Compound I-24, ((1S,2S,4R)-4-{4-[(3,4-dichlorobenzyl)amino]-7H-pyrrolo[2,3-d]pyrimidin-7-yl}-2-hydroxycyclopentyl)methyl sulfamate], the IC50 is not above 100 nM.

On to `C[C@H](Nc1ncnc2c1ccn2[C@@H]1C[C@@H](COS(N)(=O)=O)[C@@H](O)C1)c1ccccc1` [Compound I-4, [(1S,2S,4R)-2-hydroxy-4-(4-{[(1S)-1-phenylethyl]amino}-7H-pyrrolo[2,3-d]-pyrimidin-7-yl)cyclopentyl]methyl sulfamate], for which the IC50 was not above 100 nM. For `NS(=O)(=O)OC1CC(n2ccc3c(N[C@H]4CCc5ccccc54)ncnc32)CC1O` (stereo in doubt) [Compound I-78, (1R,2S,4S)-4-{4-[(1S)-2,3-dihydro-1H-inden-1-ylamino]-7H-pyrrolo[2,3-d]pyrimidin-7-yl}-2-hydroxycyclopentyl sulfamate] the value was not above 100 nM; for `NS(=O)(=O)OC[C@@H]1C[C@@H](n2ccc3c(NCc4ccc(Cl)cc4)ncnc32)[C@H](O)[C@@H]1O` [Compound I-22, ((1S,2R,3S,4R)-4-{4-[(4-chlorobenzyl)amino]-7H-pyrrolo[2,3-d]pyrimidin-7-yl)-2,3-dihydroxycyclopentyl)methyl sulfamate], not above 100 nM; for `CC1(C)C[C@@H](Nc2ncnc3c2ccn3[C@@H]2C[C@@H](COS(N)(=O)=O)[C@@H](O)C2)c2ccccc21` (single isomer, unassigned) [Compound I-21], not above 100 nM. As to `NS(=O)(=O)NC[C@@H]1C[C@@H](n2ccc3c(N[C@H]4CCc5ccccc54)ncnc32)C[C@@H]1O` [Compound I-56, N-[((1S,2S,4R)-4-{4-[(1S)-2,3-dihydro-1H-inden-1-ylamino]-7H-pyrrolo[2,3-d]-pyrimidin-7-yl}-2-hydroxycyclopentyl)methyl]sulfamide], the half-inhibitory concentration (IC50) is not above 100 nM. The value for `NS(=O)(=O)OC[C@@H]1C[C@@H](n2ccc3c(NCc4ccc5c(c4)OCO5)ncnc32)C[C@@H]1O` [Compound I-26, ((1S,2S,4R)-4-{4-[(1,3-benzodioxol-5-ylmethyl)amino]-7H-pyrrolo[2,3-d]-pyrimidin-7-yl}-2-hydroxycyclopentyl)methyl sulfamate] was not above 100 nM; that for `NS(=O)(=O)OC[C@@H]1C[C@@H](n2ccc3c(NCc4cccc(Cl)c4)ncnc32)C[C@@H]1O` [Compound I-51, ((1S,2S,4R)-4-{4-[(3-chlorobenzyl)amino]-7H-pyrrolo[2,3-d]pyrimidin-7-yl}-2-hydroxycyclopentyl)methyl sulfamate] was not above 100 nM; that for `NS(=O)(=O)OC[C@@H]1C[C@@H](n2ccc3c(N[C@@H]4CCc5c(Cl)cccc54)ncnc32)C[C@@H]1O` [Compound I-63, [(1S,2S,4R)-4-(4-{[(1R)-4-chloro-2,3-dihydro-1H-inden-1-yl]amino}-7H-pyrrolo[2,3-d]pyrimidin-7-yl)-2-hydroxycyclopentyl]methyl sulfamate] was not above 100 nM. The value for `NS(=O)(=O)OC[C@@H]1C[C@@H](n2ccc3c(N[C@H]4CCc5ccccc54)ncnc32)[C@H](O)[C@@H]1O` [Compound I-17, ((1S,2R,3S,4R)-4-{4-[(1S)-2,3-dihydro-1H-inden-1-ylamino]-7H-pyrrolo[2,3-d]-pyrimidin-7-yl}-2,3-dihydroxycyclopentyl)methyl sulfamate] was not above 100 nM.
